Measured values published in ChEMBL document CHEMBL1132124 (Bioorg Med Chem Lett, 1999).
pEC50, pIC50: −log10 of the molar value.

Molecular target: Glutamate NMDA receptor
Test: In vitro concentration eliciting half-maximal effect on [3H]-MK 801 radioligand binding to NMDA receptor; call rule not given here
Format: protein-complex assay

pEC50 | SMILES
5.02 | C[C@@H]1CN(O)C(=O)[C@@H]1N
5.36 | O=C1CNCN1O

Tested on: not listed separately
Test: In vitro maximal effect on [3H]-MK 801 binding to NMDA receptor as compared to a basal value of 100%

ME [%] | SMILES
122 | N[C@@H]1CONC1=O
159 | NCC(=O)O
169 | N[C@H](CO)C(=O)O
18 | C[C@@H]1CN(O)C(=O)[C@@H]1N
146 | O=C1CNCN1O

Molecular target: T1, Glutamate receptor ionotropic, NMDA 1 (Rattus norvegicus, UniProt P35439)
Test: In vitro inhibitory activity to inhibit [3H]glycine binding to NMDA receptor

pIC50 | SMILES
4.11 | CC1NCN(O)C1=O (stereo not drawn)
4.11 | O=C1C(CO)NCN1O (stereo not drawn)
5.73 | C[C@@H]1CN(O)C(=O)[C@@H]1N
4.08 | CC1NCC(=O)N1O (stereo not drawn)

Molecular target: T1, Glutamate receptor ionotropic, NMDA 1
Test: In vitro inhibitory activity to inhibit [3H]glycine binding to NMDA receptor; IA means inactive

IC50 | SMILES
Not Active | CC1NC(C)N(O)C1=O (stereo not drawn)
Not Active | NC1CS(=O)(=O)NC1=O (stereo not drawn)
Not Active | CC1ONC(=O)C1N (stereo not drawn)
Not Active | O=C1CCCN1O
Not Active | O=C1CNCN1
Not Active | NC1CCONC1=O (stereo not drawn)
Not Active | O=C1CCNCN1O
